Patent publication US5214034A, “Catechol derivatives, and preventive and remedial preparations for regressive disorders in the central nervous system containing the same” (priority 1986, dated 1993)
Like-named read-outs stand apart in the source and are kept apart here.

Assays:
[1] = system: production and secretion of NGF on L-M cells; experiment: Promoting action for the production and secretion of NGF on L-M cells of mouse (ELISA); assay type: cell-based; details: Mus musculus, 24 h, read-out: Ratio of NGF increase
Description: Catecholamines have also been found in a relatively high concentration to accelerate these functions without being mediated by adrenergic receptors [Y. Furukawa et al., J. Biol. Chem., 261, 6039-6047 (1986)].
The compound having a high activity in Table 1, that is, the catechol derivative having a n-alkyl group in the 3 or 4 position on the ring has been observed an acute cell toxicity in higher concentrations. The toxicity was considered the result of two hydroxyl groups in the catechol structure. Then the hydroxyl groups were esterified or etherified and the resulting derivative was examined the effect on the activity for the production and secretion of NGF.
The experiment was performed according to the procedures of Y. Furukawa et al. which is described in J. Bis Chem., 261, 6039-6047 (1986).
The medium was cultured for 3 days at a temperature of 37° C. After completing the confluency (about 10^6 cells/well), the medium was changed to Medium 199 (0.5 ml/well) containing 0.5% bovine serum albumin (Fraction V, a product of Armour Co.). The sample of the derivative is contained in the medium at a prescribed concentration as illustrated in the Tables.

Acute toxicity (LD50) = details: mouse, in vivo
Procedure: The catechol derivative having normal type saturated lower alkyl groups on the ring was administered by intravenous injection (i.v.), intraperitoneal injection (i.p.) or oral route (p.o.) to male ddy mice of 4-week old. The LD50 values (mg/kg) were measured by an ordinary method.

[2] = system: production and secretion of NGF in brain astroglial cells; experiment: Promoting activity for the production and secretion of NGF in brain astroglial cells of mouse (ELISA); details: 24 h
Procedure: The experiment was performed by inducing the astroglial cells from mouse forebrain to culture system according to the procedures of S. Furukawa et al. which is described in Biochem. Biophys. Res. Commun., 136, 57-63 (1986).
That is, forebrains of 8-day old mice were dissected out and cut into small pieces. […] Cells and cell clamps were recovered by centrifugation at 200 xg for 5 minutes. They were cultured in Dulbecco modified Eagle's medium (a product of Gibco Co. hereinafter abbreviated as DMEM) containing 10% of fetal calf serum, […] of penicillin, and 50 μg/ml of streptomycin, for 10 to 14 days with medium changes every 3 days. After completing confluency, the cells were dissociated by trypsin treatment and recultured in new culture flasks. This procedure was repeated further twice and more. […] The cells will hereinafter be referred to as astroglial cells.
Astroglial cells were innoculated in 24-well plates having a well surface area of 2.1 cm^2 (a product of Falcon Co.) at a cell density of about 3×10^4 cells/well and cultured for 3 days in DMEM . medium supplemented with 10% of fetal calf serum. After completing confluency about 10^7 cells/well), the medium was changed to DMEM medium (0.5 ml/well) supplemented with 0.5% of bovine serum albumin ((fraction V) and cultured for 3 days. The culture was further continued with medium changes every 3 days. After cells were practically synchronized in the quiscent stage, the medium was changed to 0.5 ml of the medium supplemented with 0.5% of bovine serum albumin and containing a prescribed concentration of test sample as illustrated in Tables. […] Data are expressed as fold increase in NGF content over that in the absence of the test sample. […] Data are presented as means ±SE of four determinations.

[3] = system: rats injected with kainic acid at basal forebrain / sham-operated rats; experiment: Retention of passive avoidance learning: prevention of retention deficits; assay type: in vivo, rat (male Sprague-Dawley); details: Table 8, i.p. 5 mg/kg on days 1, 4, 7
Procedure: Effects of the derivative on the behavioral parameters of rats injected with kainic acid at basal forebrain were characterized with regard to both prevention against deficits in retention of passive avoidance learning and promotion of recovery from damaged state by repeated learning.
Male Sprague-Dawley rats (9-10 weeks of age, 200-250 g of weight) were anesthetized with Nembutal (50 mg/kg, i.p.) and placed in a stereotaxic apparatus. Bilateral lesions of the ventral globus pallidus were made by direct stereotaxic application (0.7 mm posterior to bregma, 2.7 mm lateral to the midline, and 7.0 mm ventral to the brain surface) of 0.25 μg of kainic acid in 1 μl of PBS (pH 7.4) to prepare disordered models. Controls were sham-operated rats injected with PBS in place of kainic acid solution.
Passive avoidance procedures were performed by using a two chambered step-through passive avoidance apparatus with a guillotine door. A 3 mA scrambled shock was delivered to the dark floor grids for 3 seconds as a punishment. Habituation trial was conducted prior to the acquisition trial. Each rats were placed in the illuminated chamber and the guillotine door was raised after 10 seconds. As soon as the rats entered into the dark chamber, the door was lowered. The rats were removed after 10 seconds and returned to their home cages. […] The acquisition trial was performed similarly to the habituation trial. In the former case, a rat was placed in the illuminated room and the door was opened after 10 seconds. The door was shut immediately after the rat entered into the dark room, a scrambled foot shock was applied, and then the animal was removed. The latency to enter the dark chamber after opening the door was recorded for 300 seconds in the retention of passive avoidance. The latency exceeding 300 seconds was calculated as 300 seconds.
The preventive effects on deficits in retention were estimated by using 60 rats. Thirty rats were injected with kainic acid and other 30 rats were sham-operated with PBS.
Each groups of animals were equally divided into three groups which were received intraperitoneally 5 mg/kg of the derivative (A) (R=2H, R1 =H, R2 =n-propyl, that is, 4-n-propylcatechol), derivative A (R=--CO--, R1 =H, R2 =n-propyl) and saline respectively as a saline solution on one, four and seven days after the operation.
Table 8 illustrates the results obtained by conducting the acquisition trial 10 days after the operation and the retention test after 24 hours.

**Q.** Which results are given for `CCCc1ccc(O)c(O)c1` [R = Two H, R1 = H, R2 = n-Propyl, 4-n-propylcatechol]?
**A.** fold induction at 30 µM [1]: 10.1 ± 1.14; fold induction at 100 µM [1]: 17.1 ± 2.7; LD50 (Acute toxicity (LD50); ip, intraperitoneal injection, read-out: LD50 i.p.): > 500 mg/kg; LD50 (Acute toxicity (LD50); intravenous injection, read-out: LD50 i.v.): > 150 mg/kg; LD50 (Acute toxicity (LD50); oral route, read-out: LD50 p.o.): > 1500 mg/kg; fold induction at 100 µM ([2]; read-out: Ratio of NGF increase, Table 3, 0.10 mM, 24 hours, mean ± SE of four determinations): 68.4 ± 3.24; fold induction at 250 µM ([2]; read-out: Ratio of NGF increase, Table 3, 0.25 mM, 24 hours, mean ± SE of four determinations): 100 ± 11.2; Animals with more than 150 sec of latency ([3]; rats operated with kainic acid): 3 in 10 animals; Mean latency ([3]; rats operated with kainic acid, *P < 0.01 vs control): 114 ± 44 s; Animals with more than 150 sec of latency ([3]; sham-operated rats): 10 in 10 animals; Mean latency ([3]; sham-operated rats): 286 ± 9 s
